Conditions: nicotine concentration increased from 100 microgram/mL to 14,000 microgram/mL

Structure (SMILES): CN1CCCC1c1cccnc1 (stereo not shown) [nicotine]
- Change of permeability of nicotine across the buccal mucosa: decrease of about a factor of two

Reference: patent US20210345656A1, “HIGH NICOTINE ABSORPTION” (Fertin Pharma A/S, priority 2017, published 2021)
